Test systems include SF-295; A549; SNB-19; ACHN; SK-MEL-28; HL-60; OVCAR-3; SR; HT-29; HOP-62; RXF 393; UACC-257; SK-MEL-2; DU-145; UACC-62; MDA-MB-435; SF-268; A498; SW-620; Malme-3M.
What all share (test): inhibition of tumour cell growth, NCI panel, 48 h

Molecules are shown by their SMILES.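 Values below derive from 48-hour exposures of cells grown in 96-well plates, with endpoints linearly interpolated between the two concentrations bracketing the appropriate inhibition level. Here, GI50 denotes the concentration required for 50% inhibition of growth.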 Calls of active or inactive are those of the source. No stated cut-off is given here; in the data, active = GI50 up to about 1.1 µM and inactive = higher.

On to `CC(=O)OCC12C(OC(C)=O)C(=O)C3C(OC(C)=O)C14OC3(C)COC(=O)c1cccnc1C(C)C(C)C(=O)OC(C(OC(C)=O)C2OC(C)=O)C4(C)O` (stereo not given), for which the GI50 in the assay on SF-295, in the assay on A549, in the assay with SNB-19, in the assay on ACHN, in the assay with SK-MEL-28 and with HL-60 was > 100 µM (inactive) each time. Further, the GI50 was > 100 µM (inactive) in the assay with OVCAR-3; 42.6 µM (inactive) in the assay with SR; > 100 µM (inactive) in the assay on HT-29; > 100 µM (inactive) with HOP-62; > 100 µM (inactive) with RXF 393; > 100 µM (inactive) in the assay on UACC-257. In addition, the GI50 in the assay on SK-MEL-2, with DU-145, in the assay with UACC-62, with MDA-MB-435, in the assay on SF-268 and with A498 was > 100 µM (inactive) each time. Also, the GI50 in the assay with SW-620 and in the assay on Malme-3M was > 100 µM (inactive) each time.
In the case of `COC(=O)C1SC[C@H]2C(=O)N(c3ccccc3)C(=O)N12` (stereo not given in full), the GI50 in the assay on SF-295, in the assay with A549, in the assay on SNB-19, with ACHN, in the assay on SK-MEL-28 and in the assay on HL-60 was > 100 µM (inactive) throughout. For the same molecule, the GI50 in the assay with OVCAR-3, in the assay on SR, with HT-29, in the assay on HOP-62, in the assay on RXF 393 and with UACC-257 was > 100 µM (inactive) in each case. In addition, the GI50 in the assay on SK-MEL-2 is > 100 µM (inactive); in the assay on DU-145, > 100 µM (inactive); with UACC-62, > 100 µM (inactive); with MDA-MB-435 it was > 100 µM (inactive); in the assay on SF-268, > 100 µM (inactive); in the assay on A498, 21.4 µM (inactive). Also, the GI50 in the assay on SW-620 and with Malme-3M was > 100 µM (inactive) in each case.
As to `O=C1C(C(c2ccc([N+](=O)[O-])cc2)N2CCOCC2)=C(O)C(c2ccccc2)N1c1ccccc1` (stereo not given), the GI50 in the assay with SF-295, in the assay on A549, in the assay with SNB-19, with ACHN, in the assay with SK-MEL-28 and with HL-60 was > 10 µM (inactive) in each case. The GI50 in the assay on OVCAR-3, in the assay on SR, in the assay on HT-29, in the assay with HOP-62, with RXF 393 and with UACC-257 was > 10 µM (inactive) in each case. Also, the GI50 with SK-MEL-2, in the assay on DU-145, in the assay on UACC-62, in the assay with MDA-MB-435, in the assay on SF-268 and in the assay on A498 was > 10 µM (inactive) in each case. Moreover, the GI50 with SW-620 and in the assay on Malme-3M was > 10 µM (inactive) throughout.
Turning to `CC(N/N=C(\S)N1CCCC1)c1cccnn1` (stereo not given), the GI50 is 0.451 µM (active) in the assay with SF-295; 0.342 µM (active) in the assay with A549; 0.513 µM (active) in the assay on SNB-19; 0.391 µM (active) with ACHN; 0.453 µM (active) with SK-MEL-28; 0.361 µM (active) in the assay on HL-60. In addition, the GI50 in the assay with OVCAR-3 was 0.29 µM (active); in the assay on SR it was 0.378 µM (active); in the assay on HT-29, 0.426 µM (active); in the assay on HOP-62, 0.312 µM (active); with RXF 393, 0.315 µM (active); with UACC-257, 0.267 µM (active). The GI50 is 0.906 µM (active) with SK-MEL-2; 0.789 µM (active) with DU-145; 0.414 µM (active) in the assay on UACC-62; 1.13 µM (inactive) in the assay with MDA-MB-435; 0.259 µM (active) in the assay on SF-268; 4.91 µM (inactive) in the assay on A498. The GI50 was 0.579 µM (active) with SW-620 and 0.849 µM (active) with Malme-3M.
As for `O=C1c2ccccc2C(=O)c2c1ccc1nc3c(nc21)-c1c2ccccc2cc2cccc-3c12`, the GI50 was 21.4 µM (inactive) in the assay with SF-295; 45.6 µM (inactive) with A549; 38.4 µM (inactive) in the assay with SNB-19; 16.1 µM (inactive) with ACHN; > 92.7 µM (inactive) in the assay on SK-MEL-28; 10 µM (inactive) in the assay with HL-60. For the same molecule, the GI50 in the assay with OVCAR-3 is 43.8 µM (inactive); in the assay on SR, 5.27 µM (inactive); in the assay on HT-29, 27 µM (inactive); in the assay on HOP-62, 26.5 µM (inactive); in the assay with RXF 393, 39.4 µM (inactive); in the assay with UACC-257 it was > 100 µM (inactive). Moreover, the GI50 was 68.9 µM (inactive) in the assay with SK-MEL-2; 29.2 µM (inactive) in the assay with DU-145; 26.5 µM (inactive) with UACC-62; 18.6 µM (inactive) with MDA-MB-435; 29.4 µM (inactive) with SF-268; > 50.9 µM (inactive) with A498. Further, the values for the GI50 in the assay on SW-620 and with Malme-3M were > 63.1 µM (inactive) and 51.9 µM (inactive), respectively.
For `C=C1C(=O)[C@]23C[C@H]1C[C@@H](O)[C@H]2[C@]1(COC3=O)[C@@H](OC(C)=O)CC[C@@](C)(COC(C)=O)[C@H]1C=O` [LOXOTHYRIN A], the GI50 with SF-295 was > 50 µM (inactive); in the assay with A549, > 50 µM (inactive); in the assay with SNB-19, > 50 µM (inactive); in the assay on ACHN it was > 50 µM (inactive); in the assay on SK-MEL-28 it was 19.5 µM (inactive); with HL-60, 8.59 µM (inactive). The GI50 in the assay with OVCAR-3 was > 50 µM (inactive); with SR it was 28.4 µM (inactive); with HT-29, > 50 µM (inactive); with HOP-62, > 50 µM (inactive); in the assay on RXF 393, 17.2 µM (inactive); in the assay with UACC-257 it was > 50 µM (inactive). Further, the GI50 in the assay with SK-MEL-2 was > 50 µM (inactive); with DU-145 it was > 50 µM (inactive); in the assay on UACC-62, > 50 µM (inactive); in the assay on MDA-MB-435 it was > 50 µM (inactive); in the assay with SF-268, 13.8 µM (inactive); with A498 it was > 50 µM (inactive). Also, the GI50 was 9.29 µM (inactive) in the assay with SW-620 and 11.4 µM (inactive) in the assay on Malme-3M.
Take `CC(C)=CCc1c(O)cc2oc(-c3ccc(O)cc3O)cc(=O)c2c1O`: the GI50 in the assay on SF-295 is 31.6 µM (inactive); in the assay on A549, 28.5 µM (inactive); in the assay with SNB-19, 40.6 µM (inactive); in the assay with ACHN, 26.9 µM (inactive); in the assay with SK-MEL-28, 31.6 µM (inactive); in the assay on HL-60, 20.1 µM (inactive). Moreover, the GI50 in the assay on OVCAR-3 was 21.8 µM (inactive); in the assay with SR, 18.2 µM (inactive); in the assay on HT-29 it was 23.1 µM (inactive); in the assay with HOP-62, 33.3 µM (inactive); in the assay with RXF 393 it was 26.4 µM (inactive); in the assay on UACC-257, 30.9 µM (inactive). In addition, the GI50 with SK-MEL-2 was 25.4 µM (inactive); in the assay on DU-145 it was 29.3 µM (inactive); in the assay with UACC-62 it was 18.1 µM (inactive); with MDA-MB-435, 26.4 µM (inactive); in the assay with SF-268, 38.8 µM (inactive); in the assay with A498 it was 44.2 µM (inactive). Besides, the GI50 in the assay with SW-620 is 28 µM (inactive); with Malme-3M it was 25.3 µM (inactive).
As for `Nc1ncnc2c1ncn2[C@@H]1O[C@H](COP(=O)(O)OP(=O)(O)OC[C@H]2O[C@@H](OCCCO)[C@H](O)[C@@H]2O)[C@@H](O)[C@H]1O`, the GI50 was > 100 µM (inactive) in the assay with SF-295; 87.7 µM (inactive) in the assay with A549; 76.6 µM (inactive) in the assay with SNB-19; > 100 µM (inactive) with ACHN; > 100 µM (inactive) with SK-MEL-28; > 100 µM (inactive) in the assay on HL-60. Moreover, the GI50 with OVCAR-3 is > 100 µM (inactive); in the assay on SR it was 44.8 µM (inactive); with HT-29, 69.8 µM (inactive); in the assay with HOP-62 it was > 100 µM (inactive); in the assay on RXF 393 it was > 100 µM (inactive); in the assay on UACC-257, > 100 µM (inactive). In addition, the GI50 with SK-MEL-2, with DU-145, in the assay on UACC-62, in the assay with MDA-MB-435, in the assay on SF-268 and in the assay with A498 was > 100 µM (inactive) in each case. Besides, the GI50 with SW-620 and in the assay on Malme-3M was > 100 µM (inactive) in each case.
As for `CC1=Nn2c(nc3sc4c(c3c2=O)CCCC4)SC1`, the GI50 in the assay on SF-295 is > 100 µM (inactive); in the assay with A549, > 83.6 µM (inactive); in the assay on SNB-19, 90.2 µM (inactive); with ACHN it was > 51.6 µM (inactive); with SK-MEL-28, > 100 µM (inactive); in the assay on HL-60 it was 34.8 µM (inactive). The GI50 with OVCAR-3 is 76 µM (inactive); with SR it was 57 µM (inactive); in the assay on HT-29, > 88.7 µM (inactive); in the assay on HOP-62, > 100 µM (inactive); in the assay on RXF 393, > 75.7 µM (inactive); with UACC-257, > 100 µM (inactive). For the same molecule, the GI50 in the assay with SK-MEL-2 was > 100 µM (inactive); in the assay on DU-145, > 86.1 µM (inactive); in the assay on UACC-62 it was 76.4 µM (inactive); in the assay on MDA-MB-435 it was > 77.1 µM (inactive); in the assay with SF-268 it was > 58.1 µM (inactive); in the assay with A498, > 50.1 µM (inactive). Besides, the results for the GI50 with SW-620 and with Malme-3M were > 57.8 µM (inactive) and > 94.2 µM (inactive), respectively.
For `CC/C(Cl)=N\OC(=O)Nc1ccc(F)c([N+](=O)[O-])c1`, the GI50 with SF-295 was 20.7 µM (inactive); in the assay on A549 it was 20.5 µM (inactive); with SNB-19 it was 17.5 µM (inactive); in the assay with ACHN, 1.92 µM (inactive); in the assay on SK-MEL-28 it was 16.6 µM (inactive); in the assay on HL-60 it was 2.39 µM (inactive). Moreover, the GI50 with OVCAR-3 was 5.08 µM (inactive); in the assay with SR, > 39.5 µM (inactive); in the assay with HT-29 it was 24.9 µM (inactive); in the assay with HOP-62, 19.6 µM (inactive); in the assay with RXF 393, 16.7 µM (inactive); with UACC-257 it was 17.6 µM (inactive). The GI50 was 17 µM (inactive) in the assay with SK-MEL-2; 19.5 µM (inactive) in the assay on DU-145; 17.3 µM (inactive) in the assay with UACC-62; 16.3 µM (inactive) in the assay with MDA-MB-435; 16.9 µM (inactive) with SF-268; 19.9 µM (inactive) with A498. The values for the GI50 in the assay with SW-620 and in the assay with Malme-3M were 4.15 µM (inactive) and 2.13 µM (inactive), respectively.
